# Laboratory results from ChEMBL document CHEMBL3832067, “DailyMed|setid=d28bec8f-762e-4f05-a20d-96a42970d6a7 | Estradiol - estradiol patch|Mylan Pharmaceuticals Inc”.
# Legend:
# Homo sapiens = assay: (§1) Evaluation of pharmacokinetic parameters for Estradiol after multiple topical applying Estradiol transdermal systems to the abdomen or the buttocks of 17 healthy, postmenopausal female subjects.; assay type: ADME, organism-based; parameters: dose 0.075 mg/day, dose 0.1 mg/day, dose 0.0375 mg/day, dose 0.05 mg/day, route topical to abdomen, route topical to buttocks; conditions: in vivo, topical_or_ocular, dosed compound id 17, dosed compound name ESTRADIOL, gender female, regimen Multiple dose, tissue Plasma
# [1] = as §1; assay type: ADME, organism-based; parameters: dose 0.075 mg/day, dose 0.1 mg/day, dose 0.0375 mg/day, dose 0.05 mg/day, route topical to abdomen, route topical to buttocks; conditions: human, in vivo, topical or ocular; dose 0.05 mg/day, dosed compound id 17, dosed compound name ESTRADIOL, gender female, regimen Multiple dose, route topical to abdomen, tissue Plasma; read-out: Cmin(80hr)
# [2] = dose 0.0375 mg/day, route topical to abdomen
# [3] = dose 0.075 mg/day, route topical to abdomen
# [4] = dose 0.1 mg/day, route topical to abdomen
# [5] = dose 0.1 mg/day, route topical to buttocks
compound,measurement,setting,value
C[C@]12CC[C@@H]3c4ccc(O)cc4CC[C@H]3[C@@H]1CC[C@@H]2O [ESTRADIOL],Cavg,Homo sapiens; [2],0.034 ng/mL
same,Cmin(84hr),Homo sapiens; [2],0.03 ng/mL
same,Cavg,"Homo sapiens; dose 0.05 mg/day, route topical to abdomen",0.057 ng/mL
same,Cavg,Homo sapiens; [3],0.072 ng/mL
same,Cmin(84hr),Homo sapiens; [3],0.06 ng/mL
same,Cavg,Homo sapiens; [4],0.089 ng/mL
same,Cmin(84hr),Homo sapiens; [4],0.09 ng/mL
same,Cavg,Homo sapiens; [5],0.104 ng/mL
same,Cmin(84hr),Homo sapiens; [5],0.085 ng/mL
same,concentration at 80 h,[1],0.041 ng/mL
